Laboratory results from ChEMBL document CHEMBL4706505, “F10, a new camptothecin derivative, was identified as a new orally-bioavailable, potent antitumor agent” (Eur J Med Chem, 2020).
The source made the active and inactive calls. The calls are words filed in the database; no cut-off is given here.

Experiments:
[1] = system: NCI-H1975; assay: Cytotoxicity against human NCI-H1975 assessed as reduction in cell viability measured after 72 hrs by MTT assay; type: functional, cell-based; settings: NCI-H1975, 72 h
[2] = system: LoVo; assay: Cytotoxicity against human LoVo assessed as reduction in cell viability measured after 72 hrs by MTT assay; type: functional, cell-based
[3] = system: COLO 205; assay: Cytotoxicity against human COLO 205 assessed as reduction in cell viability measured after 72 hrs by MTT assay; type: functional, cell-based; settings: COLO 205, 72 h
[4] = system: A549; assay: Cytotoxicity against human A549 assessed as reduction in cell viability measured after 72 hrs by MTT assay; type: functional, cell-based; settings: A549, 72 h
[5] = system: HCT-116; assay: Cytotoxicity against human HCT-116 assessed as reduction in cell viability measured after 72 hrs by MTT assay; type: functional, cell-based; settings: HCT-116, 72 h
[6] = system: HeLa; assay: Cytotoxicity against human Hela assessed as reduction in cell viability measured after 72 hrs by MTT assay; type: functional, cell-based
[7] = system: Raji; assay: Cytotoxicity against human Raji assessed as reduction in cell viability measured after 72 hrs by MTT assay; type: functional, cell-based
[8] = Toxicity in NPG mouse xenografted with human Raji cells assessed as body weight loss at 5 mg/kg, ip measured on the 1 day; type: organism-based; settings: in vivo, 24 h
[9] = system: Raji; assay: Antitumor activity against NPG mouse xenografted with human Raji cell assessed as tumor growth inhibition at 5 mg/kg, ip measured after 5 day; type: functional; settings: 120 h, read-out: TGI
[10] = Toxicity in NPG mouse xenografted with human Raji cells assessed as body weight loss at 5 mg/kg, ip measured after 5 day; type: organism-based; settings: in vivo, 120 h
[11] = Toxicity in nude BALB/c mouse xenografted with human HCT-116 cells assessed as reduction in body weight at 20 mg/kg, po dosed once the every 2 day for upto 24 days; type: organism-based; settings: in vivo, time <=24 day
[12] = system: HCT-116; assay: Induction of apoptosis in human HCT-116 cells assessed as late apoptotic cells level at 0.03 uM incubated for 24 hrs by Annexin V-FITC/PI staining based flow cytometry (reference value: 0.07%); type: functional
[13] = system: HCT-116; assay: Induction of apoptosis in human HCT-116 cells assessed as early apoptotic cells level at 0.03 uM incubated for 24 hrs by Annexin V-FITC/PI staining based flow cytometry (reference value: 0.17%); type: functional
[14] = Solubility of compound in phosphate buffer at pH 7.4 incubated for 24 hrs under shaking condition by HPLC analysis; type: physicochemical
[15] = system: HCT-116; assay: Inhibition of colony formation in human HCT-116 cells at 1 nM incubated for 12 days by crystal violet dye based assay; type: functional, cell-based; settings: time 12.0 day
[16] = system: HCT-116; assay: Induction of apoptosis in human HCT-116 cells assessed as early apoptotic cells level at 0.001 uM incubated for 24 hrs by Annexin V-FITC/PI staining based flow cytometry (reference value: 0.17%); type: functional
[17] = Solubility of compound in water incubated for 24 hrs under shaking condition by HPLC analysis; type: physicochemical
[18] = system: HCT-116; assay: Induction of apoptosis in human HCT-116 cells assessed as early apoptotic cells level at 1 uM incubated for 24 hrs by Annexin V-FITC/PI staining based flow cytometry (reference value: 0.17%); type: functional
[19] = system: HCT-116; assay: Induction of apoptosis in human HCT-116 cells assessed as late apoptotic cells level at 1 uM incubated for 24 hrs by Annexin V-FITC/PI staining based flow cytometry (reference value: 0.07%); type: functional
[20] = Solubility of compound in phosphate buffer at pH 4.5 incubated for 24 hrs under shaking condition by HPLC analysis; type: physicochemical
[21] = system: HCT-116; assay: Induction of apoptosis in human HCT-116 cells assessed as late apoptotic cells level at 0.001 uM incubated for 24 hrs by Annexin V-FITC/PI staining based flow cytometry (reference value: 0.07%); type: functional

CCN(CC)CCNC(=O)COc1ccc2nc3c(cc2c1)Cn1c-3cc2c(c1=O)COC(=O)[C@]2(O)CC
IC50 [1]: > 10000 nM
IC50 [2]: > 10000 nM
IC50 [3]: > 10000 nM
IC50 [4]: > 10000 nM
IC50 [5]: > 10000 nM
IC50 [6]: > 10000 nM

CC[C@@]1(O)C(=O)OCc2c1cc1n(c2=O)Cc2cc3cc(OCC(=O)N4CCCC4)ccc3nc2-1
IC50 [1]: 2810 nM
IC50 [2]: 880 nM
IC50 [3]: 2830 nM
IC50 [4]: 80 nM
IC50 [5]: 81 nM
IC50 [6]: 1370 nM

CC[C@@]1(O)C(=O)OCc2c1cc1n(c2=O)Cc2cc3cc(OCC(=O)N4CCCCC4)ccc3nc2-1
IC50 [1]: 1380 nM
IC50 [2]: 272 nM
IC50 [3]: 540 nM
IC50 [4]: 55 nM
IC50 [5]: 17 nM
IC50 [6]: 380 nM

CCc1c2c(nc3ccc(OCC(=O)N4CCCC4)cc13)-c1cc3c(c(=O)n1C2)COC(=O)[C@]3(O)CC
IC50 [1]: 630 nM
IC50 [2]: 181 nM
IC50 [3]: 250 nM
IC50 [4]: 37 nM
IC50 [5]: 12 nM
IC50 [6]: 350 nM
IC50 [7]: 6 nM

CCc1c2c(nc3ccc(OC(=O)N4CCC(N5CCCCC5)CC4)cc13)-c1cc3c(c(=O)n1C2)COC(=O)[C@]3(O)CC.Cl
Activity [8]: 24.2 g
inhibition in vivo at 5 mg/kg [9]: 7.1%
Activity [10]: 23.5 g
Activity [11]: Toxic

CC[C@@]1(O)C(=O)OCc2c1cc1n(c2=O)Cc2cc3cc(OCC(=O)N(C)CCN(C)C)ccc3nc2-1
IC50 [1]: > 10000 nM
IC50 [2]: > 10000 nM
IC50 [3]: > 10000 nM
IC50 [4]: > 10000 nM
IC50 [5]: > 10000 nM
IC50 [6]: > 10000 nM

CC[C@@]1(O)C(=O)OCc2c1cc1n(c2=O)Cc2cc3cc(O)ccc3nc2-1 [HYDROXYCAMPTOTHECIN]
IC50 [2]: 330 nM
IC50 [4]: 80 nM
IC50 [5]: 21 nM

CC[C@@]1(O)C(=O)OCc2c1cc1n(c2=O)Cc2cc3cc(OCC(=O)N4CCC(N(C)C)CC4)ccc3nc2-1
IC50 [1]: > 10000 nM
IC50 [2]: > 10000 nM
IC50 [3]: > 10000 nM
IC50 [4]: > 10000 nM
IC50 [5]: > 10000 nM
IC50 [6]: > 10000 nM

CC[C@@]1(O)C(=O)OCc2c1cc1n(c2=O)Cc2cc3cc(OCC(=O)NCCN(C)C)ccc3nc2-1
IC50 [1]: > 10000 nM
IC50 [2]: > 10000 nM
IC50 [3]: > 10000 nM
IC50 [4]: > 10000 nM
IC50 [5]: > 10000 nM
IC50 [6]: > 10000 nM

CCc1c2c(nc3ccc(O)cc13)-c1cc3c(c(=O)n1C2)COC(=O)[C@]3(O)CC [7-ETHYL-10-HYDROXYCAMPTOTHECIN]
IC50 [1]: 810 nM
Activity [12]: 8.29%
Activity [13]: 3.11%
IC50 [2]: 301 nM
solubility thermodynamic at 24 h [14]: < 0.25 µg/mL
IC50 [3]: 220 nM
inhibition [15]: Active
Activity [16]: 2.91%
solubility thermodynamic at 24 h [17]: < 0.25 µg/mL
IC50 [4]: 18 nM
IC50 [5]: 10 nM
Activity [18]: 24.42%
Activity [19]: 7.12%
IC50 [6]: 145 nM
solubility thermodynamic at 24 h [20]: < 0.25 µg/mL
IC50 [7]: 5 nM
Activity [21]: 2.81%

CC[C@@]1(O)C(=O)OCc2c1cc1n(c2=O)Cc2cc3cc(OCC(=O)N4CCN(C)CC4)ccc3nc2-1
IC50 [1]: > 10000 nM
IC50 [2]: > 10000 nM
IC50 [3]: > 10000 nM
IC50 [4]: > 10000 nM
IC50 [5]: > 10000 nM
IC50 [6]: 2570 nM

CCN(CC)C(=O)COc1ccc2nc3c(cc2c1)Cn1c-3cc2c(c1=O)COC(=O)[C@]2(O)CC
IC50 [1]: 1960 nM
IC50 [2]: 933 nM
IC50 [3]: 1520 nM
IC50 [4]: 261 nM
IC50 [5]: 101 nM
IC50 [6]: 1010 nM
